Target: T1, FXR (Homo sapiens, UniProt Q96RI1)
T1 sequence (Q96RI1 262-486 limits assumed): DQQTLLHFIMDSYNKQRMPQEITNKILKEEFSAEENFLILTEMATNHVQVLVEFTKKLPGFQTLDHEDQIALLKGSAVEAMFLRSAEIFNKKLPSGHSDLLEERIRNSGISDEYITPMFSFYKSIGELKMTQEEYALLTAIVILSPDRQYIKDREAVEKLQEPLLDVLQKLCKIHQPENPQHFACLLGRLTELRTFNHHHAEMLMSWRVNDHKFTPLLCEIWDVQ
Assay: FXR agonistic activity, luciferase assay
Type: cell-based
Details: luc2P-GAL4-HEK293 cells transfected with pBIND-FXR, 24 hours
Description: The FXR agonistic activity of the compound of the present invention was evaluated using the luciferase assay.
The experimental process comprises the follows. The luc2P-GAL4-HEK293 stably transfected cell line (the cell line was established by transfecting pGL4.35 plasmid with HEK293 cells which was then subjected to Hygromycin B screening. The cell contained 9×GAL4 UAS and firefly luciferase reporter gene. The ligand-activated LBD-GAL4 DBD fusion protein can enter the nucleus to bind to 9×GAL4 UAS and activate the transcription of the downstream luciferase reporter gene) was transferred to a 96-well plate with […] per well. pBIND-FXR (Which was constructed by inserting FXR-LBD into pFN26A-BIND hRluc-neo Flexi® vector. The plasmid was 7.5 kb in size, Amp resistant, contained FXR-LBD, and can express FXR-LBD and GAL4 DBD fusion proteins) was transfected using X-tremeGENE HP transfection reagent. The ratio of plasmid to transfection reagent was 1 μg: 2 μl. The specific amount was 100 ng of plasmid and 0.2 μl of X-tremeGENE HP transfection reagent per well. The test compounds (the highest concentration of each compound was 30 μM, 3-fold dilution, a total of 10 concentrations) were added to induce the expression of luciferase. After 24 hours, the 96-well plate containing the test cells was taken out from the incubator, and placed at room temperature. Dual-Glo® Luciferase Reagent with the volume equal to the volume of the medium in the well (80 μl/well) was added to each well and mixed well. The plate was incubated at room temperature for 20 minutes to allow the cells to be fully lysed. All the liquid in the plate was transferred to a 96-well microtiter plate, and the firefly luciferin value was measured with a multi-function plate reader (manufacturer: Bio Tek (USA); model: Synergy4). Dual-Glo® a Stop & Glo® Reagent with the volume equal to the volume of the initial medium (80 μl/well) was added to each well and mixed well. The plate was incubated at room temperature for 10 minutes, and the renilla luciferin value was measured. The measurement order of renilla fluorescence should be the same as that of firefly fluorescence. Curve fitting and EC50 calculation were conducted using GraphPad Prism 5 software by nonlinear regression method. The fitting equation is: Y=Bottom+(Top−Bottom)/(1+10^((Log EC50−X)*HillSlope)), wherein EC50 refers to the semi-effective concentration, Top refers to the maximum effect, Bottom refers to the blank effect, and HillSlope refers to the slope.

SMILES: O=C(O)c1ccc(-c2noc(N3[C@@H]4CC[C@H]3C[C@@H](OCc3c(-c5c(Cl)cccc5Cl)noc3C3CC3)C4)n2)cc1 [Example 1, 4-(5-((1R,3r,5S)-3-((5-cyclopropyl-3-(2,6-dichlorophenyl)-isoxazol-4-yl)methoxy)-8-azabicyclo[3.2.1]octan-8-yl)-1,2,4-oxadiazol-3-yl)benzoic acid]
- EC50: < 25 nM

SMILES: O=C(O)c1ccc(-c2noc(N3[C@@H]4CC[C@H]3C[C@@H](OCc3c(-c5c(Cl)cccc5Cl)noc3C3CC3)C4)n2)cc1Cl [Example 2, 2-chloro-4-(5-((1R,3r,5S)-3-((5-cyclopropyl-3-(2,6-dichlorophenyl)isoxazol-4-yl)methoxy)-8-azabicyclo[3.2.1]octan-8-yl)-1,2,4-oxadiazol-3-yl)benzoic acid]
- EC50: < 25 nM

SMILES: O=C(O)c1cccc(-c2noc(N3[C@@H]4CC[C@H]3C[C@@H](OCc3c(-c5c(Cl)cccc5Cl)noc3C3CC3)C4)n2)n1 [Example 3]
- EC50: < 25 nM

SMILES: O=C(O)c1ccc(-c2noc(N3[C@@H]4CC[C@H]3C[C@@H](OCc3c(-c5c(Cl)cccc5Cl)noc3C3CC3)C4)n2)s1 [Example 4]
- EC50: < 25 nM

SMILES: Cc1cc(C(=O)O)ccc1-c1noc(N2[C@@H]3CC[C@H]2C[C@@H](OCc2c(-c4c(Cl)cccc4Cl)noc2C2CC2)C3)n1 [Example 5]
- EC50: < 25 nM

SMILES: O=C(O)c1cccc(-c2noc(N3[C@@H]4CC[C@H]3C[C@@H](OCc3c(-c5c(Cl)cccc5Cl)noc3C3CC3)C4)n2)c1 [Example 6]
- EC50: < 25 nM

SMILES: Cc1cc(-c2noc(N3[C@@H]4CC[C@H]3C[C@@H](OCc3c(-c5c(Cl)cccc5Cl)noc3C3CC3)C4)n2)ccc1C(=O)O [Example 7]
- EC50: < 25 nM

SMILES: O=C(O)c1cccc(-c2nnc(N3[C@@H]4CC[C@H]3C[C@@H](OCc3c(-c5c(Cl)cccc5Cl)noc3C3CC3)C4)o2)n1 [Example 10, 6-(5-((1R,3r,5S)-3-((5-cyclopropyl-3-(2,6-dichlorophenyl)isoxazol-4-yl)methoxy)-8-azabicyclo[3.2.1]octan-8-yl)-1,3,4-oxadiazol-2-yl)pyridine-2-carboxylic acid]
- EC50: 100 to 500 nM

SMILES: COc1cc(-c2nnc(N3[C@@H]4CC[C@H]3C[C@@H](OCc3c(-c5c(Cl)cccc5Cl)noc3C3CC3)C4)o2)ccc1C(=O)O [Example 13]
- EC50: < 25 nM

SMILES: O=C(O)c1cccc(-c2nnc(N3[C@@H]4CC[C@H]3C[C@@H](OCc3c(-c5c(Cl)cccc5Cl)noc3C3CC3)C4)o2)c1 [Example 15]
- EC50: < 25 nM

SMILES: O=C(O)c1ccc(-c2nnc(N3[C@@H]4CC[C@H]3C[C@@H](OCc3c(-c5c(Cl)cccc5Cl)noc3C3CC3)C4)o2)c(F)c1 [Example 16, 4-(5-((1R,3r,5S)-(3-((5-cyclopropyl-3-(2,6-dichlorophenyl)isoxazol-4-yl))methoxy)-8-azabicyclo[3.2.1]octan-8-yl)-1,3,4-oxadiazol-2-yl)-3-fluorobenzoic acid]
- EC50: 50 to 100 nM

SMILES: Cc1cc(-c2nnc(N3[C@@H]4CC[C@H]3C[C@@H](OCc3c(-c5c(Cl)cccc5Cl)noc3C3CC3)C4)o2)ccc1C(=O)O [Example 17]
- EC50: < 25 nM

SMILES: O=C(O)c1ccc(-c2nnc(N3[C@@H]4CC[C@H]3C[C@@H](OCc3c(-c5c(Cl)cccc5Cl)noc3C3CC3)C4)o2)cn1 [Example 18, 5-(5-((1R,3r,5S)-3-((5-cyclopropyl-3-(2,6-dichlorophenyl)isoxazol-4-yl)methoxy)-8-azabicyclo[3.2.1]octan-8-yl)-1,3,4-oxadiazol-2-yl)pyridine-carboxylic acid]
- EC50: 100 to 500 nM

SMILES: O=C(O)c1ccc(-c2nnc(N3[C@@H]4CC[C@H]3C[C@@H](OCc3c(-c5c(Cl)cccc5Cl)noc3C3CC3)C4)o2)nc1 [Example 19, 6-(5-((1R,3r,5S)-3-((5-cyclopropyl-3-(2,6-dichlorophenyl)isoxazol-4-yl)methoxy)-8-azabicyclo[3.2.1]octan-8-yl)-1,3,4-oxadiazol-2-yl)nicotinic acid]
- EC50: > 500 nM

SMILES: O=C(O)c1cc(-c2nnc(N3[C@@H]4CC[C@H]3C[C@@H](OCc3c(-c5c(Cl)cccc5Cl)noc3C3CC3)C4)o2)cs1 [Example 21]
- EC50: 100 to 500 nM

SMILES: O=C(O)c1ccc(-c2nnc(N3[C@@H]4CC[C@H]3C[C@@H](OCc3c(-c5ccccc5OC(F)(F)F)noc3C3CC3)C4)o2)cc1Cl [Example 23, 2-chloro-4-(5-((1R,3r,5S)-3-((5-cyclopropyl-3-(2-(trifluoromethoxy)phenyl)isoxazol-4-yl)methoxy)-8-azabicyclo[3.2.1]octan-8-yl)-1,3,4-oxadiazol-2-yl)benzoic acid]
- EC50: 100 to 500 nM

SMILES: O=C(O)c1cccc(-c2nnc(N3[C@@H]4CC[C@H]3C[C@@H](OCc3c(-c5ccccc5OC(F)(F)F)noc3C3CC3)C4)o2)n1 [Example 24, 6-(5-((1R,3r,5S)-3-((5-cyclopropyl-3-(2-(trifluoromethoxy)phenyl)isoxazol-4-yl)methoxy)-8-azabicyclo[3.2.1]octan-8-yl)-1,3,4-oxadiazol-2-yl)pyridine-2-carboxylic acid]
- EC50: > 500 nM

SMILES: O=C(O)c1ccc(-c2nnc(N3[C@@H]4CC[C@H]3C[C@@H](OCc3c(-c5ccccc5OC(F)(F)F)noc3C3CC3)C4)o2)s1 [Example 25]
- EC50: 100 to 500 nM

SMILES: Cc1cc(C(=O)O)ccc1-c1nnc(N2[C@@H]3CC[C@H]2C[C@@H](OCc2c(-c4ccccc4OC(F)(F)F)noc2C2CC2)C3)o1 [Example 27]
- EC50: < 25 nM

SMILES: Cc1cc(-c2nnc(N3[C@@H]4CC[C@H]3C[C@@H](OCc3c(-c5ccccc5OC(F)(F)F)noc3C3CC3)C4)o2)ccc1C(=O)O [Example 30]
- EC50: < 25 nM

SMILES: O=C(O)c1ccc(-c2nnc(N3[C@@H]4CC[C@H]3C[C@@H](OCc3c(-c5ccccc5OC(F)(F)F)noc3C3CC3)C4)o2)cn1 [Example 31, 5-(5-((1R,3r,5S)-3-((5-cyclopropyl-3-(2-(trifluoromethoxy)phenyl)isoxazol-4-yl)methoxy)-8-azabicyclo[3.2.1]octan-8-yl)-1,3,4-oxadiazol-2-yl)pyridine-carboxylic acid]
- EC50: 100 to 500 nM

SMILES: O=C(O)c1ccc(-c2nnc(N3[C@@H]4CC[C@H]3C[C@@H](OCc3c(-c5ccccc5OC(F)(F)F)noc3C3CC3)C4)o2)nc1 [Example 32]
- EC50: > 500 nM

SMILES: O=C(O)c1csc(-c2nnc(N3[C@@H]4CC[C@H]3C[C@@H](OCc3c(-c5ccccc5OC(F)(F)F)noc3C3CC3)C4)o2)c1 [Example 33, 5-(5-((1R,3r,5S)-3-((5-cyclopropyl-3-(2-(trifluoromethoxy)phenyl)isoxazol-4-yl)methoxy)-8-azabicyclo[3.2.1]octan-8-yl)-1,3,4-oxadiazol-2-yl)thiophene-3-carboxylic acid]
- EC50: 100 to 500 nM

SMILES: O=C(O)c1cc(-c2nnc(N3[C@@H]4CC[C@H]3C[C@@H](OCc3c(-c5ccccc5OC(F)(F)F)noc3C3CC3)C4)o2)cs1 [Example 34]
- EC50: > 500 nM

Source: US20220127258A1, “AROMATIC RING OR HETEROAROMATIC RING COMPOUNDS, PREPARATION METHOD THEREFOR AND MEDICAL USE THEREOF” (The National Institutes of Pharmaceutical R&D Co., Ltd., priority 2019, published 2022)
